From PubChem BioAssay (NCI) come the findings set out here.

Some test systems named below: RPMI-8226 leukemia; SK-MEL-5 melanoma; TK-10 renal; U251 CNS; LOX IMVI melanoma; DU-145 prostate; SNB-19 CNS; SK-MEL-2 melanoma; MDA-MB-435; MDA-MB-231 breast.
Holding throughout (assay): growth of human tumour cells (NCI), 48 h

Molecules are shown by their SMILES. Where “and” joins values, the source holds several entries; their conditions need not be identical. Identical values can stand only once.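 The compound was tested at five concentrations on cells cultured in 96-well plates, with a 48-hour exposure period. At the GI50, growth is halved. TGI is the concentration that stops growth completely.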

For `COc1ccc2c(c1)Oc1nc(N)c(C#N)c(N)c1C2Sc1ccc(SC)cc1` (stereo unspecified), the GI50 was 2.86 µM in the experiment on RPMI-8226 leukemia; 1.79 µM with SK-MEL-5 melanoma; 1.77 µM in the experiment on TK-10 renal; 1.73 µM in the experiment on U251 CNS; 1.68 µM with LOX IMVI melanoma; 1.79 µM in the experiment on DU-145 prostate. For the same molecule, the GI50 is 1.77 µM in the experiment on SNB-19 CNS, 1.7 µM with SK-MEL-2 melanoma, 1.74 µM in the experiment on MDA-MB-435 and 1.85 µM in the experiment on MDA-MB-231 breast. In addition, the TGI in the experiment with RPMI-8226 leukemia came to 6.43 µM; with SK-MEL-5 melanoma it was 3.18 µM; in the experiment on TK-10 renal, 3.17 µM; with U251 CNS, 3.19 µM; in the experiment with LOX IMVI melanoma, 3.21 µM; in the experiment on DU-145 prostate, 3.19 µM. Besides, the TGI is 3.18 µM with SNB-19 CNS, 3.28 µM with SK-MEL-2 melanoma, 3.23 µM in the experiment on MDA-MB-435 and 3.38 µM in the experiment on MDA-MB-231 breast.
For the molecule `CO/N=C(\c1ccccc1)c1cnn(-c2ccccc2)c1N`, the GI50 in the experiment with RPMI-8226 leukemia, in the experiment with SK-MEL-5 melanoma, in the experiment on TK-10 renal, in the experiment with U251 CNS, in the experiment on LOX IMVI melanoma and in the experiment with DU-145 prostate was greater than 25 µM each time. The GI50 in the experiment on SNB-19 CNS, in the experiment on SK-MEL-2 melanoma, in the experiment with MDA-MB-435 and in the experiment with MDA-MB-231 breast was greater than 25 µM throughout. The TGI in the experiment on RPMI-8226 leukemia, in the experiment with SK-MEL-5 melanoma, with TK-10 renal, in the experiment on U251 CNS, with LOX IMVI melanoma and in the experiment with DU-145 prostate was greater than 25 µM throughout. The TGI in the experiment with SNB-19 CNS, in the experiment with SK-MEL-2 melanoma, with MDA-MB-435 and in the experiment with MDA-MB-231 breast was greater than 25 µM throughout.
On to `CC1(C)CCC(S(=O)(=O)c2ccc3c(c2)/C(=N\O)c2cc(S(=O)(=O)N4CCC(O)(c5cccc(C(F)(F)F)c5)CC4)ccc2-3)CC1`, for which the GI50 in the experiment on RPMI-8226 leukemia was 0.0255 µM; in the experiment with SK-MEL-5 melanoma, 0.0454 µM; with TK-10 renal, 0.0441 µM; with U251 CNS it was 0.02 µM; with LOX IMVI melanoma it was 0.0183 µM; with DU-145 prostate it was 0.0319 µM. Besides, the GI50 in the experiment on SNB-19 CNS was 0.0673 µM; in the experiment with SK-MEL-2 melanoma it was 0.0179 µM; in the experiment with MDA-MB-435, 0.0283 µM; in the experiment with MDA-MB-231 breast, 0.0217 µM. Besides, the TGI was found to be 0.09 µM in the experiment on RPMI-8226 leukemia; 0.18 µM in the experiment with SK-MEL-5 melanoma; 0.393 µM in the experiment with TK-10 renal; 0.0384 µM in the experiment with U251 CNS; 0.0381 µM in the experiment with LOX IMVI melanoma; 0.115 µM with DU-145 prostate. Besides, the TGI in the experiment with SNB-19 CNS was 0.215 µM; in the experiment on SK-MEL-2 melanoma it was 0.0364 µM; in the experiment on MDA-MB-435, 0.122 µM; with MDA-MB-231 breast it was 0.0438 µM.
With `CCN(CC)c1ccc(NC(C(=O)c2ccccc2)c2ccccc2)cc1` (stereo unspecified), the GI50 is 2.61 µM in the experiment with RPMI-8226 leukemia; 2 µM with SK-MEL-5 melanoma; 2.49 µM in the experiment on TK-10 renal; 2.72 µM in the experiment with U251 CNS; 1.57 µM with LOX IMVI melanoma; 2.24 µM in the experiment on DU-145 prostate. Also, the GI50 with SNB-19 CNS was 3.45 µM; with SK-MEL-2 melanoma, 3.44 µM; in the experiment on MDA-MB-435, 2.25 µM; in the experiment on MDA-MB-231 breast, 2.85 µM. For the same molecule, the TGI in the experiment with RPMI-8226 leukemia came out at 12.3 µM; in the experiment with SK-MEL-5 melanoma, 4.66 µM; in the experiment on TK-10 renal, 7.53 µM; in the experiment with U251 CNS it was 10 µM; with LOX IMVI melanoma, 3 µM; with DU-145 prostate it was 5.08 µM. For the same molecule, the TGI in the experiment on SNB-19 CNS came to 19.1 µM; in the experiment on SK-MEL-2 melanoma, 16.8 µM; in the experiment with MDA-MB-435, 6.05 µM; in the experiment with MDA-MB-231 breast, 10.3 µM.
Turning to `CCCC[C@@H]1NC(=O)[C@H](CCCCN)NC(=O)[C@H](CCCNC(=N)N)NC(=O)[C@H](CC(C)C)NC(=O)[C@@H](NC(=O)[C@H](Cc2cccc(Cl)c2)NC(=O)[C@@H]2CCCN2C(=O)[C@@H](NC(C)=O)C(C)C)CCSSC[C@@H](C(=O)N[C@@H](CCCCN)C(=O)N2CCC[C@H]2C(=O)N2CCC[C@H]2C(=O)N[C@@H](CCC(=O)O)C(N)=O)NC(=O)[C@H](Cc2ccccc2)NC(=O)[C@H](CO)NC(=O)[C@H](C)NC(=O)[C@@H]2CCCN2C1=O`, the GI50 with RPMI-8226 leukemia, with SK-MEL-5 melanoma, in the experiment on TK-10 renal, in the experiment with U251 CNS, in the experiment on LOX IMVI melanoma and in the experiment with DU-145 prostate was greater than 50 µM in each case. In addition, the GI50 with SNB-19 CNS, in the experiment with SK-MEL-2 melanoma, with MDA-MB-435 and in the experiment with MDA-MB-231 breast was greater than 50 µM throughout. In addition, the TGI in the experiment with RPMI-8226 leukemia, in the experiment on SK-MEL-5 melanoma, in the experiment on TK-10 renal, in the experiment with U251 CNS, with LOX IMVI melanoma and in the experiment with DU-145 prostate was greater than 50 µM each time. Besides, the TGI with SNB-19 CNS, in the experiment on SK-MEL-2 melanoma, in the experiment on MDA-MB-435 and in the experiment on MDA-MB-231 breast was greater than 50 µM throughout.
As to `COc1ccc(-c2cc3c4c(nc5ccccc5c4c2)CC(c2cc(OC)c(OC)c(OC)c2)O3)cc1` (stereo unspecified), the GI50 was 3.66 µM in the experiment with RPMI-8226 leukemia; 2.67 µM in the experiment on SK-MEL-5 melanoma; 2.37 µM in the experiment on TK-10 renal; 1.76 µM in the experiment on U251 CNS; 1.92 µM in the experiment on LOX IMVI melanoma; 2.96 µM in the experiment with DU-145 prostate. The GI50 was 3.3 µM in the experiment with SNB-19 CNS, 3.44 µM in the experiment with SK-MEL-2 melanoma, 2.99 µM in the experiment on MDA-MB-435 and 2.15 µM in the experiment on MDA-MB-231 breast. Besides, the TGI is greater than 100 µM in the experiment on RPMI-8226 leukemia; 8.27 µM with SK-MEL-5 melanoma; 5.28 µM in the experiment on TK-10 renal; 4.83 µM in the experiment with U251 CNS; 6.81 µM in the experiment on LOX IMVI melanoma; greater than 100 µM with DU-145 prostate. For the same molecule, the TGI in the experiment with SNB-19 CNS is 12.8 µM; in the experiment with SK-MEL-2 melanoma, 14.9 µM; with MDA-MB-435, 13.7 µM; with MDA-MB-231 breast, 7.16 µM.
For the molecule `O=C(Cn1ccnc1[N+](=O)[O-])N(CCO)CCO`, the GI50 in the experiment with RPMI-8226 leukemia was greater than 1250 µM; in the experiment with SK-MEL-5 melanoma, greater than 1250 µM; in the experiment with U251 CNS, greater than 1250 µM; with LOX IMVI melanoma, greater than 250 µM; with SNB-19 CNS, greater than 1250 µM; in the experiment on SK-MEL-2 melanoma, greater than 1250 µM. The TGI was 250 µM and > 1250 µM with RPMI-8226 leukemia; greater than 1250 µM with SK-MEL-5 melanoma; greater than 250 µM with TK-10 renal; greater than 1250 µM in the experiment on U251 CNS; greater than 1250 µM with LOX IMVI melanoma; greater than 250 µM in the experiment with DU-145 prostate. The TGI with SNB-19 CNS is greater than 1250 µM; in the experiment on SK-MEL-2 melanoma it was 250 µM and > 1250 µM; in the experiment on MDA-MB-435, greater than 250 µM; in the experiment on MDA-MB-231 breast it was greater than 250 µM.
Consider `Cc1ccc(NS(=O)(=O)c2ccc(-c3cnc(C4CC4)o3)cc2)cc1`, for which the GI50 in the experiment on RPMI-8226 leukemia is 2.82 µM; in the experiment on SK-MEL-5 melanoma, 2.43 µM; in the experiment on TK-10 renal, 9.96 µM; in the experiment with U251 CNS it was 4.18 µM; in the experiment with LOX IMVI melanoma it was 4.88 µM; with DU-145 prostate it was 3.99 µM. The GI50 in the experiment with SNB-19 CNS is 3.88 µM; with SK-MEL-2 melanoma, 5.06 µM; with MDA-MB-435, 0.879 µM; with MDA-MB-231 breast, 4.5 µM. The TGI in the experiment on RPMI-8226 leukemia worked out at 12.6 µM; in the experiment on SK-MEL-5 melanoma it was 8.29 µM; in the experiment on TK-10 renal, 22.1 µM; in the experiment with U251 CNS it was 17.5 µM; in the experiment on LOX IMVI melanoma it was 18.2 µM; in the experiment on DU-145 prostate, 16.5 µM. Moreover, the TGI with SNB-19 CNS was 16.6 µM; in the experiment on SK-MEL-2 melanoma, 18.8 µM; in the experiment on MDA-MB-435 it was 3.94 µM; in the experiment on MDA-MB-231 breast, 18.8 µM.
In the case of `OCC1SC(n2cnc3cncnc32)C(O)C1O` (stereo unspecified), the GI50 in the experiment on RPMI-8226 leukemia, in the experiment on SK-MEL-5 melanoma, in the experiment on TK-10 renal, with U251 CNS, in the experiment with LOX IMVI melanoma and in the experiment on DU-145 prostate was greater than 100 µM each time. Besides, the GI50 in the experiment on SNB-19 CNS, in the experiment with SK-MEL-2 melanoma, with MDA-MB-435 and with MDA-MB-231 breast was greater than 100 µM throughout. Also, the TGI with RPMI-8226 leukemia, in the experiment with SK-MEL-5 melanoma, in the experiment with TK-10 renal, with U251 CNS, in the experiment on LOX IMVI melanoma and in the experiment on DU-145 prostate was greater than 100 µM in each case. Moreover, the TGI in the experiment on SNB-19 CNS, in the experiment on SK-MEL-2 melanoma, in the experiment with MDA-MB-435 and in the experiment on MDA-MB-231 breast was greater than 100 µM throughout.
